Test results: patent US10668020B1, “Pullulan based vinpocetine tablets, lyoplant-tabs, as a buccal solid dosage form” (King Abdulaziz University, priority 2019, dated 2020)
Values after ≈ are worked out from the molar mass of the structure shown.

Key:
[1] = background statement; cited from earlier work
[2] = weak basic drug; cited from earlier work
[3] = Equilibrium saturation solubility and solubilization efficiency; assay type: physicochemical; conditions: distilled water, thermodynamic from solid; pure drug, water at 25° C.; read-out: solubility of VPN in water
Experimental: To study the effects of the prepared solid dispersions on the solubility of VPN, the equilibrium solubility was determined as previously reported. (Ahmed et al. Pharm Dev Technol. 2011; 16 (5):497-510). An excess amount of either pure drug or the prepared solid dispersions were added to screw-capped vials containing 10 mL of distilled water. The vials were placed in a thermostatically controlled shaking water bath (Model 1031; GFL Corporation. Burgwedel, Germany) at 25±0.5° C. for 48 h. […] Aliquots withdrawn were filtered through a 0.22 μm pore-size Millipore filter and assayed for drug content using high performance liquid chromatography (HPLC) method Ding et al. Asian J Pharm Sci. 2015; 10:114-120. doi:10.1016/j.ajps.2014.08.008), with slight modifications. An isocratic HPLC method was performed using Agilent 1200 series equipped with UV diode array detector. A reversed phase C18 analytical column (4×250 mm, 5 μm; Thermo Fischer Scientific) was used. The mobile phase was composed of a mixture of methanol and 0.05 ammonium acetate buffer of pH 5.5, 80:20 (v/v). The flow rate of the mobile phase was 1 mL/min, the injection volume was 20 μL and the detection wave length was 273 nm. […]
The solubility of vinpocetine, in the prepared solid dispersions, was compared to the intrinsic drug solubility and the resulting ratios of solubilization efficiency (solubility enhancement) were calculated. […]

[4] = In vitro dissolution of the prepared solid dispersion (USP apparatus II); assay type: physicochemical; conditions: simulated intestinal fluid pH 6.8, 37° C.
Experimental: An in vitro dissolution study of the pure drug and the vinpocetin-PVP-VA64 inclusion complex (equivalent to 5 mg VPN) was performed in triplicate, using the United States Pharmacopeia (USP) dissolution test apparatus II paddle type, DT 700 LH device, Erweka GmbH DT 700 (Heusenstamm, Germany) at 37° C. for 2 h, with a stirring rate of 50 rpm, in 900 mL of enzyme-free simulated intestinal fluid (pH 6.8). Aliquots were collected at 5, 10, 15, 20, 25, 30, 45, 60, 90 and 120 min, with immediate replacement of an equal volume of fluid, and the collected samples were filtered through a 0.22 μm pore-size Millipore filter and assayed for drug content using high performance liquid chromatography (HPLC). From the dissolution profile curve constructed, DP5min, DP30min and DP120min, the percent of drug dissolved within 5, 30 and 120 minutes, respectively, were estimated. Also, the dissolution efficiency within 10 and 120 minutes, (DE10min) and (DE120min), respectively and, the mean dissolution time were calculated. For each formulation, the dissolution efficiency was determined as the percent ratio of area under the dissolution profile curve up to the time, t, to that of the area of the rectangle described by 100% dissolution at the same time.

[5] = Phase solubility study and thermodynamic parameter of solubility in aqueous PVP-VA64 solution; assay type: physicochemical
Experimental: An excess amount of pure VPN was added separately into screw-capped vials containing 10 mL of aqueous polyvinyl pyrrolidone vinyl acetate (PVP-VA64) solution (0-10% w/v). The vials were sealed and shaken in a water bath at 37° C. for 72 h. Aliquots (n=3) from each vial were filtered through a 0.22 μm pore-size Millipore filter, and the filtrates were assayed by HPLC. The change in the solubility of VPN resulting from the addition of different PVP-VA-64 concentrations was used to construct a phase-solubility plot and to evaluate the stoichiometry and the stability constant of complexation (Kst), which exemplifies the strength of the interaction and stability of the complex formed.
Calculation of the apparent stability constant, Kst, was achieved from the phase solubility diagram according to the equation described by Higuchi and Connors (Adv Anal Chem Instrum. 1965; 4:117-210), based on the assumption that 1:1 complex was initially formed.
[formula] In the equation, “So” represents the drug solubility in the absence of the studied polymer (the intercept of the phase solubility diagram constructed).
To evaluate the solubilizing efficiency of the studied polymer for the drug, the complexation efficiency (CE) was determined. It was calculated according to the following equation: CE=So K1:1=slope/(1-slope).
The Gibbs free energy (ΔG°tr) for the transfer of VPN from pure water to aqueous solutions of PVP-VA-64 was calculated using the following equation: ΔG°tr=−2.303 RT Log (Sc/So) where Sc/So is the ratio of the molar drug solubility in an aqueous solution of PVP-VA-64 to that of pure water. R is the gas rate constant ([…]) and T is the temperature in Kelvin at which the study was conducted. The Gibbs free energy can also be referred to as the thermodynamic potential that is minimized when a system reaches chemical equilibrium from an initial state to a final state at constant pressure and temperature. Dissolution of the Prepared Solid Dispersion

CCOC(=O)C1=C[C@]2(CC)CCCN3CCc4c(n1c1ccccc41)[C@@H]32 [Vinpocetine]
elimination half-life [1]: 1 to 2 h
first pass metabolism (metabolism in liver) [1]: 75%
pKa [2]: 7.31
solubility at 48 h [3]: 2.31 µg/mL (≈ 6.59 µM)
DE120, dissolution efficiency within 120 minutes [4]: 18.67±3.73%
DE10min, dissolution efficiency within 10 minutes [4]: 0.428±0.159%
DP5min, percent of drug dissolved within 5 minutes ([4]; 50 rpm): 5.62±2.45%
DP30min, percent of drug dissolved within 30 minutes ([4]; 50 rpm): 16.46±3.58%
DP120min, percent of drug dissolved within 120 minutes ([4]; 50 rpm): 22.41±6.04%
ΔG°tr ([5]; 1% polymeric solution (PVP-VA-64)): -1.144722 kcal/mol
ΔG°tr ([5]; 2% polymeric solution (PVP-VA-64)): -1.513035 kcal/mol
ΔG°tr ([5]; 3% polymeric solution (PVP-VA-64)): -1.766491 kcal/mol
ΔG°tr ([5]; 4% polymeric solution (PVP-VA-64)): -2.010924 kcal/mol
ΔG°tr ([5]; 5% polymeric solution (PVP-VA-64)): -2.097426 kcal/mol
ΔG°tr ([5]; 6% polymeric solution (PVP-VA-64)): -2.189169 kcal/mol
ΔG°tr ([5]; 7% polymeric solution (PVP-VA-64)): -2.315229 kcal/mol
ΔG°tr ([5]; 8% polymeric solution (PVP-VA-64)): -2.413399 kcal/mol
ΔG°tr ([5]; 9% polymeric solution (PVP-VA-64)): -2.456587 kcal/mol
ΔG°tr ([5]; 10% polymeric solution (PVP-VA-64)): -2.547512 kcal/mol
type of complexation (phase solubility profile) ([5]; VPN with PVP-VA-64): AP-type complexation
complexation efficiency CE ([5]; VPN with PVP-VA-64, 37° C.): 0.0014
stability constant Kst ([5]; VPN with PVP-VA-64, 37° C., 1:1 complex assumed): 7 mL/mg
